Laboratory results from ChEMBL document CHEMBL4765295, “Synthesis, pharmacological profile and 2D-QSAR studies of curcumin-amino acid conjugates as potential drug candidates” (Eur J Med Chem, 2020).
Where “and” joins values, the source holds several entries; their conditions need not be identical. Equal entries are not always repeated.

Tests used:
[1] = system: Rattus norvegicus; assay: Antiinflammatory activity in Wistar rat model of carrageenan-induced paw edema assessed as reduction in thickness of paw edema at 10 mg/kg, ip pretreated for 1 hr followed by carrageenan challenge and measured after 1 hr (reference value: 2.41 +/-0.05 mm); type: functional; settings: time 1 hr after carrageenan
[2] = system: Rattus norvegicus; assay: Anti-inflammatory activity in Wistar rat assessed as inhibition of carrageenan-induced paw edema at 10 mg/kg, ip pretreated for 1 hr followed by carrageenan challenge and measured after 1 hr relative to control (reference value: 0.00 +/-0.02 %); type: functional; settings: time 2 hrs
[3] = system: Rattus norvegicus; assay: Antiinflammatory activity in Wistar rat model of carrageenan-induced paw edema assessed as reduction in thickness of paw edema at 10 mg/kg, ip pretreated for 1 hr followed by carrageenan challenge and measured after 2 hrs (reference value: 2.06 +/-0.09 mm); type: functional; settings: time 3 hrs
[4] = system: Rattus norvegicus; assay: Anti-inflammatory activity in Wistar rat assessed as inhibition of carrageenan-induced paw edema at 10 mg/kg, ip pretreated for 1 hr followed by carrageenan challenge and measured after 2 hr relative to control (reference value: 0.00 +/-0.03 %); type: functional; settings: time 3 hrs
[5] = system: Rattus norvegicus; assay: Antiinflammatory activity in Wistar rat model of carrageenan-induced paw edema assessed as reduction in thickness of paw edema at 10 mg/kg, ip pretreated for 1 hr followed by carrageenan challenge and measured after 3 hrs (reference value: 1.79 +/-0.07 mm); type: functional; settings: time 4 hrs
[6] = system: Rattus norvegicus; assay: Anti-inflammatory activity in Wistar rat assessed as inhibition of carrageenan-induced paw edema at 10 mg/kg, ip pretreated for 1 hr followed by carrageenan challenge and measured after 3 hr relative to control (reference value: 0.00 +/-0.1 %); type: functional; settings: time 4 hrs
[7] = system: Rattus norvegicus; assay: Antiinflammatory activity in Wistar rat model of carrageenan-induced paw edema assessed as reduction in thickness of paw edema at 10 mg/kg, ip pretreated for 1 hr followed by carrageenan challenge and measured after 4 hrs (reference value: 1.40 +/-0.10 mm); type: functional; settings: time 5 hrs
[8] = system: Rattus norvegicus; assay: Anti-inflammatory activity in Wistar rat assessed as inhibition of carrageenan-induced paw edema at 10 mg/kg, ip pretreated for 1 hr followed by carrageenan challenge and measured after 4 hr relative to control (reference value: 0.00 +/-0.4 %); type: functional; settings: time 5 hrs
[9] = system: Rattus norvegicus; assay: Antiinflammatory activity in Wistar rat model of carrageenan-induced paw edema assessed as reduction in thickness of paw edema at 10 mg/kg, ip pretreated for 1 hr followed by carrageenan challenge and measured after 24 hrs (reference value: 0.83 +/-0.08 mm); type: functional; settings: time 25 hrs
[10] = system: Rattus norvegicus; assay: Anti-inflammatory activity in Wistar rat assessed as inhibition of carrageenan-induced paw edema at 10 mg/kg, ip pretreated for 1 hr followed by carrageenan challenge and measured after 24 hr relative to control (reference value: 0.00 +/-0.3 %); type: functional; settings: time 25 hrs
[11] = system: Rattus norvegicus; assay: Anti-inflammatory activity in Wistar rat assessed as inhibition of carrageenan-induced paw edema at 10 mg/kg, ip pretreated for 1 hr followed by carrageenan challenge and measured after 4 hr relative to indomethacin; type: functional; settings: time 5 hrs
[12] = system: Splenocyte; assay: Immunomodulatory activity in Swiss albino mouse splenocytes assessed as cell viability at 10 uM by measuring stimulation index incubated for 72 hrs in presence of mitogenic stimulus phytohaemagglutinin by MTT assay (reference value: 1.00 +/- 0.24); type: functional
[13] = system: Splenocyte; assay: Immunomodulatory activity in Swiss albino mouse splenocytes assessed as cell viability at 10 uM by measuring inhibition of stimulation index incubated for 72 hrs in presence of mitogenic stimulus phytohaemagglutinin by MTT assay relative to indomethacin; type: functional; settings: read-out: Activity
[14] = system: Peritoneal macrophage; assay: Antiinflammatory activity in […] mouse Peritoneal macrophages assessed as reduction in LPS-induced NO production by measuring reduction in stimulation index at 10 uM preincubated for 1 hr followed by LPS stimulation measured after 24 hrs by Griess method (reference value: 27.31 +/- 2.56 uM); type: functional; settings: time 25 hrs
[15] = system: Peritoneal macrophage; assay: Antiinflammatory activity in […] mouse Peritoneal macrophages assessed as inhibition of LPS-induced NO production at 10 uM preincubated for 1 hr followed by LPS stimulation measured after 24 hrs by Griess method relative to control (reference value: 0.0 %); type: functional; parameters: scale not given: the % may be the effect or the level left; settings: time 25 hrs
[16] = system: Staphylococcus aureus; assay: Antibacterial activity against Staphylococcus aureus ATCC 25923 incubated for 18 hrs by agar dilution method; type: functional
[17] = system: Streptococcus pyogenes; assay: Antibacterial activity against Streptococcus pyogenes ATCC 19615 incubated for 18 hrs by agar dilution method; type: functional
[18] = system: Salmonella typhimurium; assay: Antibacterial activity against Salmonella typhimurium ATCC 19430 incubated for 18 hrs by agar dilution assay; type: functional, Salmonella enterica subsp. enterica serovar Typhimurium; settings: Salmonella enterica
[19] = system: Pseudomonas aeruginosa; assay: Antibacterial activity against Pseudomonas aeruginosa ATCC 27853 incubated for 18 hrs by agar dilution assay; type: functional
[20] = system: Candida albicans; assay: Antifungal activity against Candida albicans incubated for 18 to 24 hrs by CLSI method; type: functional; settings: time 18-24 hrs

COc1cc(/C=C/C(=O)/C=C(O)/C=C/c2ccc(OC(=O)[C@H](CCC(N)=O)NC(=O)OC(C)(C)C)c(OC)c2)ccc1OC(=O)[C@H](CCC(N)=O)NC(=O)OC(C)(C)C
Activity [1]: 2.16 mm | inhibition in vivo at 10 mg/kg [2]: 10% | Activity [3]: 1.73 mm | inhibition in vivo at 10 mg/kg [4]: 16% | Activity [5]: 1.22 mm | inhibition in vivo at 10 mg/kg [6]: 32% | Activity [7]: 0.83 mm | inhibition in vivo at 10 mg/kg [8]: 41% | Activity [9]: 0.36 mm | inhibition in vivo at 10 mg/kg [10]: 57% | inhibition in vivo at 10 mg/kg [11]: 47% | Activity_index [12]: 2.14 | viability at 10 µM [13]: 56.6% | Activity [14]: 21.22 µM | Activity [15]: 22.29% | MIC [16]: 0.125 µg/mL and 0.152 µM | MIC [17]: 0.25 µg/mL and 0.303 µM | MIC [18]: 0.125 µg/mL and 0.152 µM | MIC [19]: 1 µg/mL and 1.21 µM | MIC [20]: 2 µg/mL and 2.42 µM

CC[C@H](C)[C@H](NC(=O)OC(C)(C)C)C(=O)Oc1ccc(/C=C/C(=O)/C=C(O)/C=C/c2ccc(OC(=O)[C@@H](NC(=O)OC(C)(C)C)[C@@H](C)CC)c(OC)c2)cc1OC
Activity [1]: 1.61 mm | inhibition in vivo at 10 mg/kg [2]: 33% | Activity [3]: 1.27 mm | inhibition in vivo at 10 mg/kg [4]: 38% | Activity [5]: 0.91 mm | inhibition in vivo at 10 mg/kg [6]: 49% | Activity [7]: 0.69 mm | inhibition in vivo at 10 mg/kg [8]: 51% | Activity [9]: 0.49 mm | inhibition in vivo at 10 mg/kg [10]: 41% | inhibition in vivo at 10 mg/kg [11]: 59% | Activity_index [12]: 2.07 | viability at 10 µM [13]: 58.3% | Activity [14]: 20.81 µM | Activity [15]: 23.82% | MIC [16]: 0.125 µg/mL and 0.157 µM | MIC [17]: 0.25 µg/mL and 0.314 µM | MIC [18]: 0.125 µg/mL and 0.157 µM | MIC [19]: 1 µg/mL and 1.26 µM | MIC [20]: 2 µg/mL and 2.52 µM

COc1cc(/C=C/C(=O)/C=C(O)/C=C/c2ccc(OC(=O)[C@@H](NC(=O)OC(C)(C)C)C(C)C)c(OC)c2)ccc1OC(=O)[C@@H](NC(=O)OC(C)(C)C)C(C)C
Activity [1]: 2.09 mm | inhibition in vivo at 10 mg/kg [2]: 13% | Activity [3]: 1.57 mm | inhibition in vivo at 10 mg/kg [4]: 24% | Activity [5]: 1.34 mm | inhibition in vivo at 10 mg/kg [6]: 25% | Activity [7]: 0.8 mm | inhibition in vivo at 10 mg/kg [8]: 43% | Activity [9]: 0.58 mm | inhibition in vivo at 10 mg/kg [10]: 30% | inhibition in vivo at 10 mg/kg [11]: 49% | Activity_index [12]: 1.84 | viability at 10 µM [13]: 65.6% | Activity [14]: 19.29 µM | Activity [15]: 29.35% | MIC [16]: 0.25 µg/mL and 0.326 µM | MIC [17]: 2 µg/mL and 2.61 µM | MIC [18]: 0.25 µg/mL and 0.326 µM | MIC [19]: 2 µg/mL and 2.61 µM | MIC [20]: 1 µg/mL and 1.3 µM
